The values below come from patent US4614740A, “5H-2,3-benzodiazepine derivatives and pharmaceutical compositions containing the same” (Egis Gyogyszergyar, priority 1984, dated 1986).

Assay [1] relates to mice. The assay is described as follows: narcosis potentiating effect (sodium hexobarbital narcosis). The format is in vivo. Particulars: Mus musculus, po, 50 mg/kg sodium hexobarbital i.v., limits between slashes, read-out: ED50 (dose increasing the narcosis period of half of the test animals to double). As for the experimental part:
The narcosis potentiating effect was studied on mice. The compounds were administered in 3 or 4 oral doses to 15-20 animals per dose. Narcosis was induced with 50 mg/kg of sodium hexobarbital injected intravenously into the animals. The ED50 value is the dose increasing the narcosis period of half of the test animals to double.

Assay [2] relates to mice from the CFLP strain. The assay is described as follows: spontaneous motor activity, motimeter of Animex type. The format is in vivo. To be noted: Mus musculus, po, 2 hours registration, Litchfield and Wilcoxon, limits between slashes, read-out: ED50 value (dose decreasing the spontaneous motor activity to half). Here is the method: The spontaneous motor activity was measured on a motimeter of Animex type. Groups of animal consisting of 3 mice from the CFLP strain weighing 20 to 23 g were starved for 24 hours and put to the apparatus. After a previous treatment of 10 minutes the amount of movements was registered continuously for 2 hours. The dose decreasing the spontaneous motor activity to half in comparison with the control group treated with vehiculum was determined.
The ED50 values were calculated by the method of Litchfield and Wilcoxon [J. Pharmacol. Exp. Ther. 96, 99 1949].

A short description of assay [3]: anxiolytic effect, Vogel lick-conflict test. Type of assay: in vivo. As for the experimental part:
The anxiolytic effect was determined by the method of Vogel lick-conflict test/[Psychopharmacol. 21, 1 1979]. Tofizopam, 1-(3-chlorophenyl)-4-methyl-7,8-dimethoxy-5H-2,3-benzodiazepine and Chlorodiazepoxide 7-chloro-2-methylamino-5-phenyl-3H-1,4-benzodiazepine-4-oxide were used as reference agents.

In assay [4] the test system is mice. The assay is described as follows: antiaggressive effect, "fighting behaviour" test. Particulars: for ED50: Mus musculus, po; for Relative activity: antiaggressive effect, p.o., tofizopam = 1.0. The format is in vivo. From the text:
The antiaggressive effect was studied on mice by the so-called "fighting behaviour" test [J. Pharm. Exp. Ther. 125, 28 (1959)]. Tofizopam and 1-(3-chlorophenyl)-4-methyl-7,8-dimethoxy-5H-2,3-benzodiazepine were used as reference agents.

For assay [5] the following is noted: tofizopam used in the therapy; cited from earlier work.
Assay [6] is described as follows: muscle relaxant activity, "inclined screen" test. Type of assay: in vivo.
Assay [7] deals with mice. Kind of assay: hypnotic activity in mice (HD50). To be noted: for ED50: Mus musculus, mice. Type of assay: in vivo.
A short description of assay [8]: muscle relaxant activity, rotarod test. Type of assay: in vivo. Particulars: ip, read-out: ED50, rotarod test.
The test system of assay [9] is rats. Kind of assay: hypnotic activity in rats (HD50). The format is in vivo. Particulars: Rattus norvegicus, iv.

Consider `COc1cc2c(cc1OC)C(c1ccc(N)cc1)=NN=C(C)C2` [Example 1, 1-(4-aminophenyl)-4-methyl-7,8-dimethoxy-5H-2,3-benzodiazepine], for which the results for the 50% effective dose (ED50) in assay [1], in assay [2] and in assay [4] were 4.8 mg/kg, 3.2 mg/kg and 8.1 mg/kg, respectively. The “Number of electric shocks tolerated” value in assay [3] (2.5 mg/kg i.p.) was found to be 4.1 ± 0.7; in assay [3] (5 mg/kg i.p.), 13.9 ± 2.7; in [3] (10 mg/kg i.p.), 19.7 ± 2.9. The compound also yielded a Relative activity in assay [4] of 7.9.

For `CCC1C(C)=NN=C(c2ccc(OC)c(OC)c2)c2cc(OC)c(OC)cc21` (stereo not drawn) [Tofizopam, 1-(3,4-dimethoxyphenyl)-4-methyl-5-ethyl-7,8-dimethoxy-5H-2,3-benzodiazepine, reference compound], the median effective dose (ED50) – broadly, the midpoint of the dose-response relation – in [1] was 38 mg/kg; in assay [2], 22 mg/kg; in assay [4], 74 mg/kg. In addition, the “Number of electric shocks tolerated” value in assay [3] (25 mg/kg i.p.) turned out to be 3.6 ± 0.4; in [3] (50 mg/kg i.p.), 19.8 ± 3.7. The “further central nervous character (in words), reference drug” value in assay [5] is listed as “in addition to the anxiolytic effect, a weak antidepressant activity”. Besides, the Relative activity in assay [4] was 1.0.

Take `COc1cc2c(cc1OC)C(C)C(C)=NN=C2c1ccc(N)cc1` (stereo not drawn) [Example 11, 1-(4-Aminophenyl)-4,5-dimethyl-7,8-dimethoxy-5H-2,3-benzodiazepine]: in assay [4], it took a dose of 16 mg/kg to reach the 50% effect level (ED50) and the Relative activity turned out to be 4.6.

For the compound `COc1cc2c(cc1OC)C(c1cccc(Cl)c1)=NN=C(C)C2` [1-(3-chlorophenyl)-4-methyl-7,8-dimethoxy-5H-2,3-benzodiazepine, reference compound], the values for the median effective dose (ED50) in [1], in assay [2] and in assay [4] were 16 mg/kg, 6.2 mg/kg and 16 mg/kg, respectively. Besides, the “Number of electric shocks tolerated” value was determined as 9.9 ± 2.8 in [3] (25 mg/kg i.p.) and 19.0 ± 2.3 in assay [3] (50 mg/kg i.p.). Also, the Relative activity in assay [4] was found to be 4.6.

For the compound `COc1cc2c(cc1OC)C(c1ccc(C)c(N)c1)=NN=C(C)C2` [Example 15, 1-(3-Amino-4-methylphenyl)-4-methyl-7,8-dimethoxy-5H-2,3-benzodiazepine], the median effective dose (ED50) in assay [1] was found to be 25 mg/kg; in assay [2], 9.7 mg/kg; in assay [4] it was 17 mg/kg. Moreover, in assay [4], the Relative activity turned out to be 3.8.

As for `CC1=NN=C(c2ccc(N)cc2)c2cc3c(cc2C1)OCO3` [Example 8, 1-(4-aminophenyl)-4-methyl-7,8-methylenedioxy-5H-2,3-benzodiazepine], the ED50 in assay [6] (ip, read-out: ED50, inclined screen test) was determined as 47 mg/kg; in [1], 7.4 mg/kg; in assay [2], 48 mg/kg; in [7] (ip), 70 mg/kg; in assay [7] (iv), 40 mg/kg; in assay [7] (po), 140 mg/kg. For the same compound, the ED50 amounted to 24 mg/kg in assay [8] and 40 mg/kg in assay [9]. Also, in assay [6] (versus Zoxazolamine, inclined screen and rotarod), the “muscle relaxant activity (in words)” value was “more potent than the reference substance Zoxazolamine”. The “hypnotic activity (in words)” value in [7] (mice and rats) is listed as “significant hypnotic activity”.

Regarding `COc1cc2c(cc1OC)C(c1ccc(N)c(C)c1)=NN=C(C)C2` [Example 10, 1-(3-Methyl-4-aminophenyl)-4-methyl-7,8-dimethoxy-5H-2,3-benzodiazepine], the ED50 in assay [1] came to 7.4 mg/kg; in assay [2], 4.4 mg/kg; in assay [4] it was 9.1 mg/kg. This compound gave a Relative activity in assay [4] of 7.0.

As for `COc1cc2c(cc1OC)C(c1ccc(N)c(Cl)c1)=NN=C(C)C2` [Example 18, 1-(3-Chloro-4-aminophenyl)-4-methyl-7,8-dimethoxy-5H-2,3-benzodiazepine], the 50% effective dose (ED50) came to 7.6 mg/kg in [1] and 7.9 mg/kg in assay [4]. Moreover, the “Number of electric shocks tolerated” value in [3] (2.5 mg/kg i.p.) turned out to be 7.6 ± 3.0; in assay [3] (5 mg/kg i.p.), 8.3 ± 1.0. In assay [4], this compound yielded a Relative activity of 8.1.

For the compound `COc1cc2c(cc1OC)C(c1cccc(N)c1)=NN=C(C)C2` [Example 2, 1-(3-Aminophenyl)-4-methyl-7,8-dimethoxy-5H-2,3-benzodiazepine], the ED50 in assay [1] was found to be 8.2 mg/kg; in assay [2], 1.3 mg/kg; in [4], 12.5 mg/kg. Besides, the “Number of electric shocks tolerated” value in assay [3] (10 mg/kg i.p.) is 4.2 ± 0.7; in assay [3] (25 mg/kg i.p.), 15.1 ± 1.9. The compound further registered a Relative activity in [4] of 5.1.

Consider `CNC1=Nc2ccc(Cl)cc2C(c2ccccc2)=[N+]([O-])C1` [Chlorodiazepoxide, 7-chloro-2-methylamino-5-phenyl-3H-1,4-benzodiazepine-4-oxide, reference compound], for which the entries for the “Number of electric shocks tolerated” value in assay [3] (5 mg/kg i.p.) and in [3] (10 mg/kg i.p.) were 9.7 ± 3.7 and 27.5 ± 2.5, respectively.

For the compound `O=C1CN=C(c2ccccc2)c2cc([N+](=O)[O-])ccc2N1` [Nitrazepam, 7-nitro-5-phenyl-1,3-dihydro-2H-1,4-benzodiazepin-2-one, reference compound], the ED50 came to 150 mg/kg in [7] (ip), 75 mg/kg in [7] (iv), 185 mg/kg in assay [7] (po) and 96 mg/kg in [9].
